Results on twelve molecules are retold here after patent US11692008B2, “Preparation and uses of reactive oxygen species scavenger derivatives” (XWPHARMA LTD., priority 2017, dated 2023).

Like-named read-outs stand apart in the source and are kept apart here.

Assay [1] has as its system HT-1080 cells. In words: Ferroptosis cell viability assay (Erastin-induced, CellTiter-Glo). The note with it: read-out: EC50, inhibition for ferroptosis in HT-1080 cell. In kind it is cell-based. Here is the method:
Cell Lines and Media: HT-1080 (fibrosarcoma) cells were obtained from American Type Culture Collection. Cells were grown in EMEM media, 10% Heat-Inactivated FBS, and penicillin-streptomycin mix (Invitrogen). Cells were maintained at 37° C. and 5% CO2 in a tissue culture incubator.
Cell Viability Assay. Seed 10,000 cell/well of HT-1080 cells with 195 μL growth media in black and clear bottom 96-well plates (Cat #Corning3904) and allow cells to adhere overnight. The next day, dilute test compound by 2-fold dilution into 12 points with medium containing 400 μM Erastin. Transfer 5 μL of compounds solution into growth medium in triplicated wells. 30 hours later, add Cell Titer-Glo® Luminescent cell viability assay reagent (Cat #, Promega G8081) to measure HT-1080 cell viability according to the manufacture protocol. Briefly, aspirate 100 μL medium, and add 50 μL CellTiter-Glo® Luminescent reagent to each well and incubated for 30 minutes at room temperature to stabilize the Luminescent signal. Seal the plates and centrifuged for 1 minute at 1,000 rpm to remove bubbles. Shake the plates for 1 minute on an orbital shaker. Read the plate to detect Luminescent signal with EnSpire Multimode Plate Reader (PerkinElmer). The remaining activity % is used to evaluate Erastin induced ferroptosis in HT-1080 cells and expressed as the following formula: % Remaining Activity=100×[(Sample−Backgroundavg)/(Vehicle−Backgroundavg)]
Sample: Readout from the test compound
Vehicle: Readout from the vehicle sample
Background: Readout from the Erastin only treatment
Dose response curve is graphed by using the non-linear regression analysis (formula equation 201) in XLFit (Excel add-in software) for the average % remaining activity from triplicates, and the EC50 values is then calculated. In this anti-ferroptosis assay, ferrostatin-1, and XJB-5-131 are included as reference. The acceptance criteria were set based on historical result, mean±2.58*SD in logarithmic scale, meanwhile Z′>0.5.

Assay [2] has as its system 3T3-L1 cells. In words: Apoptosis assay (Caspase-Glo 3/7, Actinomycin D induced). In kind it is cell-based. The note with it: 100 nM Actinomycin D, read-out: EC50, inhibition for apoptosis in 3T3-L1 cell induced by Actinomycin D. On the procedure: Cell Lines and Media. 3T3-L1 cells were obtained from American Type Culture Collection. Cells were grown in DMEM completed media, 10% FBS, and penicillin-streptomycin mix (Invitrogen). Cells were maintained at 37° C. and 5% CO2 in a tissue culture incubator.
Apoptosis Assay. […] We used this assay to screen our compounds for apoptosis inhibition. Briefly, 40 μL of 3000 3T3-L1 cells were seeded per well in 384 well plates, Cells were allowed to adhere overnight. In the next day, prepare the Actinomycin D as the apoptosis inducing agent into 100 μM DMSO stock. Prepare the test compounds into 10 mM DMSO stock. Serial dilute the compound into 10 points by 3-fold dilution with DMSO. Pre-treat the 3T3-L1 cells with test compound by transfer 40 nL of stock of serial concentration in triplicate wells using acoustic fluid transfer, incubate for 2 hours. Then transfer 40 nL of 100 μM of Actinomycin D (final concentration is 100 nM) into designated wells using acoustic fluid transfer. Incubate the assay plates at 37° C., 5% CO2, 95% humidity incubator for 48 hours. For caspase assay, add 20 μL/well of Caspase-Glo® 3/7 reagent (Promega) into test wells. Incubate for 30 minutes at room temperature to stabilize the luminescence signal. Read the plate with EnSpire Multimode Plate Reader (PerkinElmer). Calculate the EC50 value using formula equation 201: y=(A+((B−A)/(1+((x/C)^D)))) from the XLFit (Excel add-in software), where • A: Average mean of vehicle samples • B: Average mean of cells treated with 100 nM AcD • C: EC50 • D: HillSlope Z′ factor was used to describe the screening assay performance. The Z′ factor value was >0.5 in all the test plates which indicated the assay was qualified and the IC50 value was reliable for all tested compounds.

The EC50 is the midpoint of the concentration-response curve.

Consider `CC1=C(C)C(=O)C(CCC(=O)NCCCC[C@H](NC(=O)[C@@H]2CCCN2C(=O)[C@H](/C=C/[C@H](CC(C)C)NC(=O)OC(C)(C)C)Cc2ccccc2)C(=O)NC(C)C)=CC1=O` [I, tert-Butyl ((4S,7S,E)-7-benzyl-8-((S)-2-(((S)-6-(3-(4,5-dimethyl-3,6-dioxocyclohexa-1,4-dien-1-yl)propanamido)-1-(isopropylamino)-1-oxohexan-2-yl)carbamoyl)pyrrolidin-1-yl)-2-methyl-8-oxooct-5-en-4-yl)carbamate], for which the EC50 in assay [1] (30 hours) turned out to be 119 nM; in assay [2] (Mus musculus, 3T3-L1, 48 h), 1150 nM. As to `COC1=C(OC)C(=O)C(CCCCCCCCCCOC(=O)NCCCC[C@H](NC(=O)[C@@H]2CCCN2C(=O)[C@H](/C=C/[C@H](CC(C)C)NC(=O)OC(C)(C)C)Cc2ccccc2)C(=O)NC(C)C)=C(C)C1=O` [III, tert-butyl N-[(4S,5E,7S)-7-benzyl-8-[(2S)-2-{[(1S)-5-[({[10-(4,5-dimethoxy-2-methyl-3,6-dioxocyclohexa-1,4-dien-1-yl)decyl]oxy}carbonyl)amino]-1-[(propan-2-yl)carbamoyl]pentyl]carbamoyl}pyrrolidin-1-yl]-2-methyl-8-oxooct-5-en-4-yl]carbamate], in assay [1] (Homo sapiens, HT-1080, 30 h), the EC50 came to 34.6 nM. For `CC1=C(C)C(=O)C(CCCOC(=O)NCCCC[C@H](NC(=O)[C@@H]2CCCN2C(=O)[C@H](/C=C/[C@H](CC(C)C)NC(=O)OC(C)(C)C)Cc2ccccc2)C(=O)NC(C)C)=CC1=O` [II], in assay [1] (30 hours), the EC50 was 33 nM. `CC1=C(C)C(=O)C(CCC(=O)NCCCC[C@H](NC(=O)[C@@H]2CCCN2C(=O)[C@H](/C=C/[C@H](CC(C)C)NC(=O)OC(C)(C)C)Cc2ccccc2)C(=O)NC(C)C)=CC1=O` [IV, tert-Butyl ((4S,7S,E)-7-benzyl-8-((S)-2-(((S)-6-(3-(4,5-dimethyl-3,6-dioxocyclohexa-1,4-dien-1-yl)propanamido)-1-(isopropylamino)-1-oxohexan-2-yl)carbamoyl)pyrrolidin-1-yl)-2-methyl-8-oxooct-5-en-4-yl) carbamate]: the concentration giving a half-maximal response (EC50) in assay [1] (30 hours) was found to be 24.4 nM; in assay [2] (48 hours), 702 nM. On to `CC1=C(C)C(=O)C(CCCOC(=O)NCCCC[C@H](NC(=O)[C@@H]2CCCN2C(=O)[C@H](/C=C/[C@H](CC(C)C)NC(=O)OCC2CC2)Cc2ccccc2)C(=O)NC(C)C)=C(C)C1=O` [IX, Cyclopropylmethyl N-[(4S,5E,7S)-7-benzyl-2-methyl-8-oxo-8-[(2S)-2-{[(1S)-1-[(propan-2-yl)carbamoyl]-5-({[3-(2,4,5-trimethyl-3,6-dioxocyclohexa-1,4-dien-1-yl)propoxy]carbonyl}amino)pentyl]carbamoyl}pyrrolidin-1-yl]oct-5-en-4-yl]carbamate], for which the EC50 in assay [1] (Homo sapiens, HT-1080, 30 h) turned out to be 49.3 nM. In the case of `CC1=C(C)C(=O)C(CCCOC(=O)NCCCC[C@H](NC(=O)[C@@H]2CCCN2C(=O)[C@H](/C=C/[C@H](CC(C)C)NC(=O)OC(C)(C)C)Cc2ccccc2)C(=O)NC(C)C)=CC1=O` [V, tert-butyl N-[(4S,5E,7S)-7-benzyl-8-[(2S)-2-{[(1S)-5-({[3-(4,5-dimethyl-3,6-dioxocyclohexa-1,4-dien-1-yl)propoxy]carbonyl}amino)-1-[(propan-2-yl)carbamoyl]pentyl]carbamoyl}pyrrolidin-1-yl]-2-methyl-8-oxooct-5-en-4-yl]carbamate], the EC50 in assay [1] (Homo sapiens, HT-1080, 30 h) worked out at 196 nM; in assay [2] (Mus musculus, 3T3-L1, 48 h), 2740 nM. As to `CCOC(=O)N[C@H](/C=C/[C@H](Cc1ccccc1)C(=O)N1CCC[C@H]1C(=O)N[C@@H](CCCCC1=C(C)C(=O)C(C)=C(C)C1=O)C(=O)NC(C)C)CC(C)C` [VII, ethyl ((4S,7S,E)-7-benzyl-8-((S)-2-(((S)-1-(isopropylamino)-1-oxo-6-(2,4,5-trimethyl-3,6-dioxocyclohexa-1,4-dien-1-yl)hexan-2-yl)carbamoyl)pyrrolidin1-yl)-2-methyl-8-oxooct-5-en-4-yl)carbamate], the concentration giving a half-maximal response (EC50) in assay [1] (Homo sapiens, HT-1080, 30 h) turned out to be 80.5 nM. Turning to `COc1c(C)c(C)c(OC)c(CCCOC(=O)NCCC[C@H](NC(=O)[C@@H](NC(=O)[C@@H]2CCCN2C(=O)[C@H](/C=C/[C@H](CC(C)C)NC(=O)OC(C)(C)C)Cc2ccccc2)C(C)C)C(=O)NC(C)C)c1C` [VIII, tert-butyl N-[(4S,5E,7S)-7-benzyl-8-[(2S)-2-{[(1S)-1-{[(1S)-4-({[3-(2,5-dimethoxy-3,4,6-trimethylphenyl)propoxy]carbonyl}amino)-1-[(propan-2-yl)carbamoyl]butyl]carbamoyl}-2-methylpropyl]carbamoyl}pyrrolidin-1-yl]-2-methyl-8-oxooct-5-en-4-yl]carbamate], in assay [1] (Homo sapiens, HT-1080, 30 h), the EC50 was > 6000 nM. On to `CC1=C(C)C(=O)C(CCCC[C@H](NC(=O)[C@@H]2CCCN2C(=O)[C@H](/C=C/[C@H](CC(C)C)NC(=O)OC(C)(C)C)Cc2ccccc2)C(=O)NC(C)C)=C(C)C1=O` [VI], for which the 50% effective concentration (EC50) in assay [1] (30 hours) was 39.1 nM; in assay [2] (48 hours), 7320 nM. For `CC1=C(C)C(=O)C(CCCOc2ccc(C[C@H](NC(=O)[C@@H]3CCCN3C(=O)[C@H](/C=C/[C@H](CC(C)C)NC(=O)OC(C)(C)C)Cc3ccccc3)C(=O)NC(C)C)cc2)=C(C)C1=O` [X, tert-Butyl ((4S,7S,E)-7-benzyl-8-((S)-2-(((S)-1-(isopropylamino)-1-oxo-3-(4-(3-(2,4,5-trimethyl-3,6-dioxocyclohexa-1,4-dien-1-yl)propoxy)phenyl)propan-2-yl)carbamoyl)pyrrolidin-1-yl)-2-methyl-8-oxooct-5-en-4-yl)carbamate], the EC50 in assay [1] (Homo sapiens, HT-1080, 30 h) is 56.9 nM.

Regarding `CC1=C(C)C(=O)C(CCCOC(=O)NCCC[C@H](NC(=O)[C@@H](NC(=O)[C@@H]2CCCN2C(=O)[C@H](/C=C/[C@H](CC(C)C)NC(=O)OC(C)(C)C)Cc2ccccc2)C(C)C)C(=O)NC(C)C)=C(C)C1=O` [XI, tert-butyl N-[(4S,5E,7S)-7-benzyl-2-methyl-8-[(2S)-2-{[(1S)-2-methyl-1-{[[(1S)-1-[(propan-2-yl)carbamoyl]-4-({3-(2,4,5-trimethyl-3,6-dioxocyclohexa-1,4-dien-1-yl)propoxy]carbonyl}amino)butyl]carbamoyl}propyl]carbamoyl}pyrrolidin-1-yl]-8-oxooct-5-en-4-yl]carbamate], in assay [1] (Homo sapiens, HT-1080, 30 h), the EC50 was 47 nM. Same read-out and setting: as for `CC1=C(C)C(=O)C(CCCOC(=O)NCCC[C@H](NC(=O)[C@@H]2CCCN2C(=O)[C@H](/C=C/[C@H](CC(C)C)NC(=O)OC(C)(C)C)Cc2ccccc2)C(=O)NC2CC2)=C(C)C1=O` [XII, 3-(2,4,5-trimethyl-3,6-dioxocyclohexa-1,4-dien-1-yl)propyl N-[(4S)-4-{[(2S)-1-[(2S,3E,5S)-2-benzyl-5-{[(tert-butoxy)carbonyl]amino}-7-methyloct-3-enoyl]pyrrolidin-2-yl]formamido}-4-(cyclopropylcarbamoyl)butyl] carbamate], the figure is 149 nM.
